test system: human citrated plasma; assay: aPTT time prolongation (clotting of human citrated plasma, Biomatic B10 coagulometer); format: biochemical; conditions: effective concentration at which the aPTT time is double compared with the control, 37° C.
Experimental: were investigated for their effect on prolonging the aPTT time as follows:
plasma, from human citrated blood.
Diethylbarbiturate acetate buffer, Behring Werke, Marburg (ORWH 60/61),
Biomatic B10 coagulometer, Desaga, Wiesloch.
The aPTT time was determined using a Biomatic B10 coagulometer made by Messrs. Sarstedt.
The test substance was placed in the test tubes prescribed by the manufacturer with 0.1 ml of human citrated plasma and 0.1 ml of PTT reagent. The mixture was incubated for three minutes at 37° C. The clotting reaction was started by the addition of 0.1 ml of calcium solution. The time is measured using the apparatus from the addition of the calcium solution up to the clotting of the mixture. Mixtures to which 0.1 ml of DBA buffer were added were used as the controls.

| Compound | aPTT time (ED200 in μM) [µM] |
| --- | --- |
| CCOC(=O)Cc1cc(C#CCNc2ccc(C(=N)N)cc2)c(C)cc1C(=O)N1CCCC1C (racemic) [A, rac-4-{3-[5-ethoxycarbonylmethyl-2-methyl-4-(2-methyl-pyrrolidinocarbonyl)-phenyl]-propargylamino}benzamidine] | 0.23 |
| CCN(CCC(=O)OC)C(=O)c1cc(C)c(C#CCNc2ccc(C(=N)N)cc2)cc1C [G, 4-{3-[2,5-dimethyl-4-(N-(2-methoxycarbonyl-ethyl)-N-ethyl-carbonylamino)-phenyl]-propargylamino}benzamidine] | 0.29 |
| Cc1cc(C(=O)N2CCCC2C)c(C)cc1C#CCNc1ccc(C(=N)N)cc1 (racemic) [B, rac-4-{3-[2,5-dimethyl-4-(2-methyl-pyrrolidinocarbonyl)-phenyl]-propargylamino}benzamidine] | 0.45 |
| Cc1cc(N(C(=O)CC(=O)O)C(C)C)c(C)cc1C#CCNc1ccc(C(=N)N)cc1 [I, 4-{3-[2,5-dimethyl-4-(N-isopropyl-N-hydroxycarbonylmethyl-carbonyl-amino)-phenyl]-propargylamino}-benzamidine] | 0.45 |
| Cc1cc(C#CCNc2ccc(C(=N)N)cc2)ccc1C(=O)N1CCCC1 [F, 4-[3-(3-methyl-4-pyrrolidinocarbonyl-phenyl)-propargyl-amino]-benzamidine] | 0.54 |
| Cc1cc(C(=O)N(C)c2ccccn2)c(C)cc1C#CCNc1ccc(C(=N)N)cc1 [D, 4-{3-[2,5-dimethyl-4-(N-methyl-N-pyridin-2-yl-aminocarbonyl)-phenyl]propargylamino}benzamidine] | 0.23 |
| Cc1cc(C(=O)N(C)c2ccccn2)c(C)cc1CCCNc1ccc(C(=N)N)cc1 [E, 4-{3-[2,5-dimethyl-4-(N-methyl-N-pyridin-2-yl-aminocarbonyl)-phenyl]prop-1-ylamino}benzamidine] | 0.69 |
| Cc1cc(C(=O)C(C)C)c(C)cc1C#CCNc1ccc(C(=N)N)cc1 [C, 4-[3-(2,5-dimethyl-4-isopropylcarbonyl-phenyl)propargyl-amino]benzamidine] | 0.97 |
| Cc1cc(NC(=O)N(CC(=O)O)C(C)C)c(C)cc1C#CCNc1ccc(C(=N)N)cc1 [H, 4-{3-[2,5-dimethyl-4-(N-isopropyl-N-hydroxycarbonylmethyl-aminocarbonyl-amino)-phenyl]-propargylamino}-benzamidine] | 0.20 |
